From patent US8568696B2, “Grinding method for the manipulation or preservation of calcium phosphate hybrid properties” (Indiana Nanotech LLC, priority 2008, dated 2013) come the findings set out here.

Data set [1] can be described thus: Long-term accelerated aging of NaF(aq)-hybrid suspensions, fluoride availability by fluoride-sensitive electrode. In kind it is physicochemical. Conditions: supernatant, triplicate. The method, then: Long-term accelerated aging studies were performed on NaF(aq)-hybrid suspensions. The experiments were carried out in triplicate with 1 mL of each supernatant aspirated, mixed with 1 mL of TISAB II (1:1), and measured with a fluoride-sensitive electrode calibrated to known standards of 100, 950, and 1900 ppm fluoride.
The purpose of this study was to determine if the NaF(aq)-hybrid suspensions maintain sufficient fluoride availability. • 0.24% and 0.32% NaF systems were aged for 122 Days @ 40° C. • 0.05% NaF systems were aged for 119 Days @ 40° C. Results

Data set [2] in a line: In vitro remineralization/demineralization pH cycling study, Vickers surface microhardness of eroded enamel. The note with it: change in Vickers microhardness relative to baseline. Also on record: species or system Bovine. As for the experimental part: An efficacy study was run in order to evaluate in multiple pH remin/demin cycling models the efficacy of calcium phosphate blends prepared as described above in remineralizing eroded enamel. These studies involved 226 ppm fluoride rinse systems.
The experiment design for the remineralization/demineralization pH cycling study is as follows. Bovine enamel specimens were extracted, ground, and polished. Initial erosion was performed by immersing each enamel specimen in 10 ml of 1% citric acid (pH=3.8) for 30 minutes. After the immersion, four baseline Vickers indentations under a 200 gf load for 15 seconds were made on each specimen and those with a Vickers microhardness number between 200 and 230 VHN were selected for the study. There were three groups in this study (N=10 specimens per group): • Group 1: negative control (DI water) • Group 2: positive control (226 ppm F) • Group 3: 226 ppm F plus 0.004% β-tricalcium phosphate-silica-carbamide
The cycling regimen consisted of five, two-minute/day acid challenges and three, two-minute treatments/day. In between treatments and acid challenges, each specimen was immersed in artificial mineral mix. This process was repeated up to 20 days, after which a post-cycle acid challenge was administered using 1% citric acid (pH=3.8) for 11 minutes. The specimens were evaluated for Vickers surface microhardness after 10 and 20 days as well as after the post-cycle acid challenge. The change in Vickers microhardness relative to baseline values was then used as the performance gauge. Remineralization efficacy was evaluated by comparing post surface Vickers microhardness numbers to baseline surface Vickers values. Means and standard deviations of the means were calculated and the Student Q-test was employed to assess accuracy of the individual specimen measurements within each group. […]
This cycling study evaluated the β-tricalcium phosphate-silica-carbamide blend when combined in a 226 ppm fluoride (NaF(aq)) solution and tested in a pH cycling model. […]

Consider `[F-].[Na+]` [0.05% NaF Control], for which, in data set [1] (aged for 119 Days @ 40° C.), the “Mean ppm F ± Std. Dev” value was determined as 231.7 ± 0.5 ppm F.

For the molecule `[F-].[Na+]` [0.24% NaF Control], the “Mean ppm F ± Std. Dev” value in data set [1] (aged for 122 Days @ 40° C.) is 1080.7 ± 4.8 ppm F.

Turning to `[F-].[Na+]` [0.32% NaF Control], in data set [1] (aged for 122 Days @ 40° C.), the “Mean ppm F ± Std. Dev” value was determined as 1493.3 ± 3.3 ppm F.

As for `[F-].[Na+]` [Group 2], in data set [2] (10 days pH cycling, N=10 specimens per group), the “Mean ΔVHN ± SEM, after 10 days” value is on record as 73.2 ± 7.0^2. In data set [2] (20 days pH cycling, N=10 specimens per group), the “Mean ΔVHN ± SEM, after 20 days” value is recorded as 67.6 ± 7.6^2. Also, the “Mean ΔVHN ± SEM, after post-cycle acid challenge” value in data set [2] (after 11-minute post-cycle acid challenge, 1% citric acid pH 3.8) is 81.9 ± 7.1^2.
